# Test results: US20200108112A1, “METHOD FOR PREPARING FENUGREEK EXTRACT AND PHARMACEUTICAL COMPOSITION COMPRISING FENUGREEK EXTRACT” (PRINCE PHARMACEUTICAL CO., LTD., priority 2017, published 2020)
# Tested on: HepG2 cells
# Experiment: Lipid droplets formation in HepG2 cells, formula of fenugreek extract (oil red-O / MTS index)
# Type: cell-based
# Conditions: lipid droplets induced group = 100%; treated 16 hours, then lipid droplets induced reagent 16 hours
# Description: (1) HepG2 cells were seeded at 2.5×10^4 cells/well and incubated for 24 hours. (2) The incubated cells were divided into the following groups: Control group (CG) was added with 1% DMSO to treat the HepG2 cells for 16 hours, and then treated with cell culture medium for 16 hours. Lipid droplets induced group (LDIG) was added with 1% DMSO to treat the HepG2 cells for 16 hours, and then treated with 500 nM lipid droplets induced reagent for 16 hours. […] In addition, in a preferred embodiment, Vitamin E, SiO2, MAG and Fibersol-2 ® may be additionally added as desired. Each experiment group was respectively added to treat the HepG2 cells for 16 hours, and then treated with lipid droplets induced reagent for 16 hours. [table] (3) The above groups were examined by MTS assay and oil red-O stain, and the oil red OD value/MTS OD value was used as the index of lipid droplets.
smiles,measurement,value
"NCCS(=O)(=O)O [experiment group 7, taurine]",percentage of the lipid droplet formation,72.4%
